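All cell lines were grown in 96-well plates and treated with compound for 48 hours. GI50: concentration for 50% inhibition of growth. TGI marks complete inhibition of growth.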
Assays:
Assay in all cases: growth of human tumour cells (NCI), 48 h
M14 melanoma = system: M14 melanoma
SK-MEL-28 melanoma = system: SK-MEL-28 melanoma
NCI-H460 lung = system: NCI-H460 lung
K-562 leukemia = system: K-562 leukemia
786-0 renal = system: 786-0 renal
HOP-62 NSCLC = system: HOP-62 NSCLC
MCF7 breast = system: MCF7 breast
MDA-MB-435 = system: MDA-MB-435
LOX IMVI melanoma = system: LOX IMVI melanoma
MOLT-4 leukemia = system: MOLT-4 leukemia
OVCAR-8 ovarian = system: OVCAR-8 ovarian
T-47D breast = system: T-47D breast
SF-268 CNS = system: SF-268 CNS
EKVX NSCLC = system: EKVX NSCLC
ACHN renal = system: ACHN renal
SK-MEL-2 melanoma = system: SK-MEL-2 melanoma
A498 renal = system: A498 renal
CAKI-1 renal = system: CAKI-1 renal
SK-OV-3 ovarian = system: SK-OV-3 ovarian
SN12C renal = system: SN12C renal
UACC-257 melanoma = system: UACC-257 melanoma
UACC-62 melanoma = system: UACC-62 melanoma
RPMI-8226 leukemia = system: RPMI-8226 leukemia
IGROV1 ovarian = system: IGROV1 ovarian
SNB-19 CNS = system: SNB-19 CNS
OVCAR-3 ovarian = system: OVCAR-3 ovarian
MDA-MB-468 breast = system: MDA-MB-468 breast
UO-31 renal = system: UO-31 renal
SK-MEL-5 melanoma = system: SK-MEL-5 melanoma
OVCAR-4 ovarian = system: OVCAR-4 ovarian
HOP-92 NSCLC = system: HOP-92 NSCLC
SW-620 colon = system: SW-620 colon
TK-10 renal = system: TK-10 renal
A549 NSCLC = system: A549 NSCLC
NCI-H23 lung = system: NCI-H23 lung
CCRF-CEM leukemia = system: CCRF-CEM leukemia
RXF 393 renal = system: RXF 393 renal
BT-549 breast = system: BT-549 breast
SR leukemia = system: SR leukemia
HCT-116 colon = system: HCT-116 colon
NCI-H226 lung = system: NCI-H226 lung
OVCAR-5 ovarian = system: OVCAR-5 ovarian
MDA-MB-231 breast = system: MDA-MB-231 breast
HCC-2998 colon = system: HCC-2998 colon
DU-145 prostate = system: DU-145 prostate
HS 578T breast = system: HS 578T breast
SNB-75 CNS = system: SNB-75 CNS
NCI-H522 lung = system: NCI-H522 lung
SF-295 CNS = system: SF-295 CNS
KM12 colon = system: KM12 colon
U251 CNS = system: U251 CNS
PC-3 prostate = system: PC-3 prostate
COLO 205 colon = system: COLO 205 colon
HCT-15 colon = system: HCT-15 colon
NCI/ADR-RES ovarian = system: NCI/ADR-RES ovarian
SF-539 CNS = system: SF-539 CNS
HL-60(TB) leukemia = system: HL-60(TB) leukemia
HT29 colon = system: HT29 colon

Compound: O=C(N/N=C/c1occc1Br)c1[nH]c2ccc(Br)cc2c1-c1ccccc1
- GI50 (M14 melanoma): 0.669 µM
- TGI (M14 melanoma): 15.8 µM
- GI50 (SK-MEL-28 melanoma): 5.05 µM
- TGI (SK-MEL-28 melanoma): 20.9 µM
- GI50 (NCI-H460 lung): 0.756 µM
- TGI (NCI-H460 lung): 10.9 µM
- GI50 (K-562 leukemia): 0.384 µM
- TGI (K-562 leukemia): > 100 µM
- GI50 (786-0 renal): 0.677 µM
- TGI (786-0 renal): 16.7 µM
- GI50 (HOP-62 NSCLC): 0.668 µM
- TGI (HOP-62 NSCLC): 18.1 µM
- GI50 (MCF7 breast): 0.323 µM
- TGI (MCF7 breast): 11.9 µM
- GI50 (MDA-MB-435): 0.249 µM
- TGI (MDA-MB-435): 0.875 µM
- GI50 (LOX IMVI melanoma): 0.663 µM
- TGI (LOX IMVI melanoma): 12.7 µM
- GI50 (MOLT-4 leukemia): 1.45 µM
- TGI (MOLT-4 leukemia): 12.8 µM
- GI50 (OVCAR-8 ovarian): 2.3 µM
- TGI (OVCAR-8 ovarian): 11.3 µM
- GI50 (T-47D breast): 0.484 µM
- TGI (T-47D breast): 19.7 µM
- GI50 (SF-268 CNS): 1.74 µM
- TGI (SF-268 CNS): 16.2 µM
- GI50 (EKVX NSCLC): 1.93 µM
- TGI (EKVX NSCLC): 17.3 µM
- GI50 (ACHN renal): 0.952 µM
- TGI (ACHN renal): 16.2 µM
- GI50 (SK-MEL-2 melanoma): 0.675 µM
- TGI (SK-MEL-2 melanoma): 16.9 µM
- GI50 (A498 renal): 14.8 µM
- TGI (A498 renal): 28.8 µM
- GI50 (CAKI-1 renal): 0.698 µM
- TGI (CAKI-1 renal): 17.1 µM
- GI50 (SK-OV-3 ovarian): 1.5 µM
- TGI (SK-OV-3 ovarian): 18.1 µM
- GI50 (SN12C renal): 1.51 µM
- TGI (SN12C renal): 12.5 µM
- GI50 (UACC-257 melanoma): 12.5 µM
- TGI (UACC-257 melanoma): 28.8 µM
- GI50 (UACC-62 melanoma): 0.384 µM
- TGI (UACC-62 melanoma): 16.7 µM
- GI50 (RPMI-8226 leukemia): 2.44 µM
- TGI (RPMI-8226 leukemia): 20.5 µM
- GI50 (IGROV1 ovarian): 1.23 µM
- TGI (IGROV1 ovarian): 13.7 µM
- GI50 (SNB-19 CNS): 2.85 µM
- TGI (SNB-19 CNS): 19.3 µM
- GI50 (OVCAR-3 ovarian): 0.351 µM
- TGI (OVCAR-3 ovarian): 11.8 µM
- GI50 (MDA-MB-468 breast): 0.383 µM
- TGI (MDA-MB-468 breast): 16.9 µM
- GI50 (UO-31 renal): 0.746 µM
- TGI (UO-31 renal): 21.1 µM
- GI50 (SK-MEL-5 melanoma): 0.677 µM
- TGI (SK-MEL-5 melanoma): 6.21 µM
- GI50 (OVCAR-4 ovarian): 7.1 µM
- TGI (OVCAR-4 ovarian): 22 µM
- GI50 (HOP-92 NSCLC): 11.2 µM
- TGI (HOP-92 NSCLC): 24.7 µM
- GI50 (SW-620 colon): 0.443 µM
- TGI (SW-620 colon): 14.3 µM
- GI50 (TK-10 renal): 7.68 µM
- TGI (TK-10 renal): 26.5 µM
- GI50 (A549 NSCLC): 1.95 µM
- TGI (A549 NSCLC): 21.9 µM
- GI50 (NCI-H23 lung): 2.05 µM
- TGI (NCI-H23 lung): 13.2 µM
- GI50 (CCRF-CEM leukemia): 0.512 µM
- TGI (CCRF-CEM leukemia): 11 µM
- GI50 (RXF 393 renal): 2.68 µM
- TGI (RXF 393 renal): 22.2 µM
- GI50 (BT-549 breast): 0.743 µM
- TGI (BT-549 breast): 12.9 µM
- GI50 (SR leukemia): 0.459 µM
- TGI (SR leukemia): 30 µM
- GI50 (HCT-116 colon): 0.557 µM
- TGI (HCT-116 colon): 12.6 µM
- GI50 (NCI-H226 lung): 2.51 µM
- TGI (NCI-H226 lung): 16.6 µM
- GI50 (OVCAR-5 ovarian): 2.79 µM
- TGI (OVCAR-5 ovarian): 13.6 µM
- GI50 (MDA-MB-231 breast): 1.1 µM
- TGI (MDA-MB-231 breast): 14.6 µM
- GI50 (HCC-2998 colon): 1.79 µM
- TGI (HCC-2998 colon): 13.7 µM
- GI50 (DU-145 prostate): 2.71 µM
- TGI (DU-145 prostate): 13.1 µM
- GI50 (HS 578T breast): 0.759 µM
- TGI (HS 578T breast): 18.4 µM
- GI50 (SNB-75 CNS): 0.832 µM
- TGI (SNB-75 CNS): 14.2 µM
- GI50 (NCI-H522 lung): 0.183 µM
- TGI (NCI-H522 lung): 0.5 µM
- GI50 (SF-295 CNS): 0.359 µM
- TGI (SF-295 CNS): 13.5 µM
- GI50 (KM12 colon): 1.26 µM
- TGI (KM12 colon): 14.1 µM
- GI50 (U251 CNS): 3.22 µM
- TGI (U251 CNS): 16.8 µM
- GI50 (PC-3 prostate): 0.941 µM
- TGI (PC-3 prostate): 14.9 µM
- GI50 (COLO 205 colon): 0.561 µM
- TGI (COLO 205 colon): 3.97 µM
- GI50 (HCT-15 colon): 0.516 µM
- TGI (HCT-15 colon): 11.7 µM
- GI50 (NCI/ADR-RES ovarian): 0.348 µM
- TGI (NCI/ADR-RES ovarian): 3.24 µM
- GI50 (SF-539 CNS): 1.16 µM
- TGI (SF-539 CNS): 4.36 µM
- GI50 (HL-60(TB) leukemia): 0.344 µM
- TGI (HL-60(TB) leukemia): 2.02 µM
- GI50 (HT29 colon): 0.456 µM
- TGI (HT29 colon): 2.68 µM

Reference: PubChem BioAssay (NCI)
